Where “and” joins values, the source holds several entries; their conditions need not be identical. Equal entries are not always repeated.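 The compound was tested at five concentrations on cells cultured in 96-well plates, with a 48-hour exposure period. Here, GI50 denotes the concentration required for 50% inhibition of growth. TGI is the concentration that stops growth completely.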
Tests used:
Experiment in all cases: growth of human tumour cells (NCI), 48 h
OVCAR-5 ovarian = system: OVCAR-5 ovarian
LOX IMVI melanoma = system: LOX IMVI melanoma
NCI-H522 lung = system: NCI-H522 lung
HT29 colon = system: HT29 colon
SK-MEL-5 melanoma = system: SK-MEL-5 melanoma
SF-295 CNS = system: SF-295 CNS
SK-MEL-2 melanoma = system: SK-MEL-2 melanoma
SR leukemia = system: SR leukemia
TK-10 renal = system: TK-10 renal
ACHN renal = system: ACHN renal

SMILES	TGI (OVCAR-5 ovarian)	TGI (LOX IMVI melanoma) [µM]	TGI (NCI-H522 lung)	TGI (HT29 colon)	TGI (SK-MEL-5 melanoma)	TGI (SF-295 CNS)	TGI (SK-MEL-2 melanoma)	TGI (SR leukemia)	TGI (TK-10 renal)	TGI (ACHN renal)	GI50 (OVCAR-5 ovarian) [µM]	GI50 (LOX IMVI melanoma) [µM]	GI50 (NCI-H522 lung)	GI50 (HT29 colon) [µM]	GI50 (SK-MEL-5 melanoma) [µM]	GI50 (SF-295 CNS) [µM]	GI50 (SK-MEL-2 melanoma)	GI50 (SR leukemia)	GI50 (TK-10 renal) [µM]	GI50 (ACHN renal) [µM]
Fc1cccc(Cl)c1/C=N\N=C1c2ccccc2-c2ccccc21	> 100 µM	> 100	> 100 µM	> 100 µM	> 100 µM	> 100 µM	> 100 µM	> 100 µM	> 100 µM	> 100 µM	–	–	–	–	–	–	–	–	–	–
Nc1ccc(S(=O)(=O)NCc2nccs2)cc1	35.7 µM	41.7	35.6 µM	31.3 µM	29.6 µM	> 100 µM	37.9 µM	> 100 µM	56.5 µM	63.4 µM	–	–	–	–	–	–	–	–	–	–
O=Cc1ccc(-c2cccs2)s1	69.7 µM	> 100	> 100 µM	> 68.1 µM	> 88.9 µM	> 100 µM	> 100 µM	> 100 µM	11.7 µM	> 100 µM	–	–	–	–	–	–	–	–	–	–
CC1CCN(CC(=O)N2c3ccccc3Sc3cc4ccccc4cc32)CC1	> 100 µM	> 100	> 100 µM	> 100 µM	> 100 µM	> 100 µM	> 100 µM	> 100 µM	> 100 µM	> 100 µM	–	–	–	–	–	–	–	–	–	–
C=C=C(C(=O)OC)S(=O)c1ccc([N+](=O)[O-])cc1[N+](=O)[O-] (configuration not stated)	> 100 µM	46.4	21 µM	52.9 µM	> 100 µM	> 100 µM	> 79.8 µM	35.4 µM	> 85.7 µM	> 68.5 µM	–	–	–	–	–	–	–	–	–	–
Cc1cc(N/N=C/c2nc(-c3ccc(Cl)cc3)oc2C)c2cc(Cl)ccc2n1	20.6 µM	4.18	4.27 µM	4.95 µM	20.8 µM	22.6 µM	31.8 µM	4.84 µM	3.48 µM	3.78 µM	8.08	2.01	1.89 µM	1.97	8.64	10.2	16.4 µM	0.344 µM	1.85	1.95
N#C[C@@H]1C(n2ccc(N)nc2=O)O[C@H](CO)[C@H]1O (some centres not stated)	> 100 µM	> 100	> 100 µM	> 100 µM	> 100 µM	> 100 µM	> 100 µM	> 100 µM	> 100 µM	> 100 µM	> 75.2	11.4	4.24 µM	> 85	38.3	> 100	> 100 µM	7.31 µM	> 100	1.47
COc1cc(Cn2c(-c3nonc3N)nc3ccccc32)ccc1C	43.5 µM	> 100	0.735 µM	7.3 µM	19.8 µM	5.63 µM	9.97 µM	> 100 µM	30 µM	> 93.8 µM	1.59	0.649	0.243 µM	0.358	0.354	0.34	0.417 µM	0.516 µM	1.09	0.726
Nc1nc(CCC(=O)Nc2cccc(C(F)(F)F)c2)cc(-c2ccc3ccccc3c2)n1	> 100 µM	–	> 100 µM	> 100 µM	> 100 µM	> 100 µM	> 100 µM	> 100 µM	> 100 µM	> 100 µM	–	–	–	–	–	–	–	–	–	–
CC(C)[C@H]1C(=O)N[C@@H](CCCN=C(N)N)C(=O)NCC(=O)N[C@@H](CC(=O)O)C(=O)N[C@H](Cc2ccccc2)C(=O)N1C	> 100 µM	> 100	5.7 µM	> 100 µM	1.33 µM	> 100 µM	5.78 µM	> 100 µM	4.06 µM	> 100 µM	1.34	15.5	2.32 µM	> 61.1	0.366	> 82.7	1.35 µM	> 100 µM	1.43	> 100
Cn1c(=O)c2c(ncn2CN2CCN(Cn3cnc4c3c(=O)n(C)c(=O)n4C)CC2)n(C)c1=O	> 100 µM	62.4	> 100 µM	> 100 µM	> 100 µM	> 100 µM	> 100 µM	> 100 µM	> 100 µM	> 100 µM	–	–	–	–	–	–	–	–	–	–
COC1CC(OC(=O)c2ccccc2)C(OC(=O)c2ccccc2)C(C)O1 (configuration not stated)	> 100 µM	> 100	> 100 µM	–	> 100 µM	> 100 µM	> 100 µM	> 100 µM	> 100 µM	> 100 µM	–	–	–	–	–	–	–	–	–	–
CCOc1c(Cl)cc(CNC(C)C(O)c2ccccc2)cc1OC (configuration not stated)	96.4 µM	30.7	43.3 µM	45.5 µM	30.6 µM	34.6 µM	39 µM	52.5 µM	> 100 µM	> 100 µM	24.3	17	20.7 µM	18.6	16.6	16.4	21.4 µM	17.1 µM	31.7	23.7
CCOC(=O)COS(=O)(=O)C(F)(F)F	> 100 µM	34	> 100 µM	> 100 µM	> 100 µM	> 100 µM	> 100 µM	49.1 µM	> 100 µM	> 100 µM	–	–	–	–	–	–	–	–	–	–
NC(=O)c1ccc(C2C3=C(CCCC3=O)OC3=C2C(=O)c2ccccc2C3=O)cc1 (configuration not stated)	3.92 µM	1.06	0.757 µM	5.58 µM	1.73 µM	3.18 µM	2.06 µM	5.73 µM	3.22 µM	2.41 µM	1.91	0.181	0.307 µM	1.77	0.493	1.53	0.576 µM	0.771 µM	1.82	1.14
O=C1CC(=O)OC(c2ccc([N+](=O)[O-])cc2)O1	4.93 µM	3.17	2.72 µM	3.73 µM	3.39 µM	14 µM	5.85 µM	9.09 µM	4.53 µM	3.16 µM	2.04	1.68	1.38 µM	1.9	1.72	4.85	2.31 µM	2.62 µM	1.92	1.68
C[C@]12CC[C@@H]3c4ccc(O)cc4C(O)C[C@H]3[C@@H]1CCC2=O (some centres not stated)	> 100 µM	> 100	> 100 µM	> 100 µM	> 100 µM	> 100 µM	> 100 µM	> 100 µM	> 100 µM	> 100 µM	> 100	> 100	60.8 µM	46.7	> 100	> 100	> 100 µM	> 100 µM	> 100	> 100

SMILES	TGI (OVCAR-5 ovarian)	TGI (LOX IMVI melanoma) [µM]	TGI (NCI-H522 lung)	TGI (HT29 colon)	TGI (SK-MEL-5 melanoma)	TGI (SF-295 CNS)	TGI (SK-MEL-2 melanoma)	TGI (SR leukemia)	TGI (TK-10 renal)	TGI (ACHN renal)	GI50 (OVCAR-5 ovarian) [µM]	GI50 (LOX IMVI melanoma) [µM]	GI50 (NCI-H522 lung)	GI50 (HT29 colon) [µM]	GI50 (SK-MEL-5 melanoma) [µM]	GI50 (SF-295 CNS) [µM]	GI50 (SK-MEL-2 melanoma)	GI50 (SR leukemia)	GI50 (TK-10 renal) [µM]	GI50 (ACHN renal) [µM]
Cc1ccc2c(c1)C(c1cccc3ccccc13)OC2=O (configuration not stated)	> 100 µM	> 100	> 100 µM	> 100 µM	> 100 µM	> 100 µM	> 100 µM	> 100 µM	> 100 µM	> 100 µM	–	–	–	–	–	–	–	–	–	–
Cc1cc(=O)oc2cc(O)c(CN(C)CC(=O)O)cc12	> 100 µM	> 100	> 100 µM	> 100 µM	> 100 µM	–	> 100 µM	> 100 µM	> 100 µM	> 100 µM	–	–	–	–	–	–	–	–	–	–
O=C(O)CSc1ncccc1[N+](=O)[O-]	> 100 µM	> 100	> 100 µM	> 100 µM	> 100 µM	> 100 µM	> 100 µM	> 100 µM	> 100 µM	> 100 µM	–	–	–	–	–	–	–	–	–	–
CSc1ccc(/C=C2\C=C(CC(=O)NCc3ccc(C(=O)c4ccccc4)cc3)c3cc(F)ccc32)cc1	24.9 µM	6.47	0.211 µM	2.73 µM	0.365 µM	6.9 µM	7.04 µM	26.2 µM	6.93 µM	12.3 µM	0.0618	0.069	0.0287 µM	0.0368	0.035	0.0453	0.049 µM	0.0306 µM	0.329	0.261
CCN(CC)CCNc1n[n+]([O-])c2ccccc2[n+]1[O-]	38.6 µM and 35.8 µM	28.3	17.3 µM and 22.9 µM	39.2 µM and 42.7 µM	4.86 µM and 3.31 µM	39.5 µM and 23.9 µM	13.2 µM and 19.1 µM	6.87 µM and 28.7 µM	> 68.5 µM and 41.8 µM	18.4 µM and 21.1 µM	–	–	3.85 µM and 7.95 µM	–	–	–	2.34 µM and 5.13 µM	2.92 µM and 6.7 µM	–	–
CC(C)Oc1cc(O)c2c(c1)OCC=C2CCC(=O)O	> 100 µM	> 100	59.3 µM	53.1 µM	36.5 µM	> 100 µM	> 100 µM	> 100 µM	76.8 µM	> 100 µM	–	–	–	–	–	–	–	–	–	–
COc1ccc(C2CC(n3nnnc3-c3ccccc3)=NN2)cc1 (configuration not stated)	61.7 µM	15.2	20.4 µM	17.9 µM	7.81 µM	3.12 µM	32.7 µM	> 100 µM	–	22.4 µM	5.59	0.693	1.16 µM	2.82	2.12	0.662	11.6 µM	35.6 µM	–	1.44
O=[N+]([O-])c1nccn1COCCBr	> 100 µM	> 100	> 100 µM	> 100 µM	> 100 µM	> 100 µM	> 100 µM	> 100 µM	> 100 µM	> 100 µM	–	–	–	–	–	–	–	–	–	–
COc1cc2nc(-c3ccc(C(F)(F)F)cc3)cc(OCCCN3CCCCC3)c2cc1OC	16.5 µM	0.355	21.7 µM	2.52 µM	1.2 µM	2.04 µM	8.89 µM	3.62 µM	24.5 µM	14.4 µM	0.71	0.162	2.44 µM	0.415	0.325	0.53	2.64 µM	0.193 µM	7.81	1.2
Cc1cc(-c2nnc3n2CCCCC3)c(C)n1-c1ccc(Cl)c(Cl)c1	> 100 µM	32.2	28.3 µM	38.1 µM	6.08 µM	52.5 µM	31 µM	45.3 µM	65.3 µM	> 100 µM	39	12.1	12.6 µM	16	2.18	16.4	14.9 µM	11 µM	20.1	12
CCN(CC)c1ccc2c(c1)Nc1cc(=C(C#N)C#N)c3ccccc3c1=N2	> 100 µM	> 100	> 100 µM	> 100 µM	> 100 µM	> 100 µM	> 100 µM	> 100 µM	> 100 µM	> 100 µM	–	–	–	–	–	–	–	–	–	–
OCC1OC(n2cnc3c(/C=C(/O)c4ccccc4)ncnc32)C(O)C1O (configuration not stated)	> 100 µM	> 100	43.1 µM	> 100 µM	79.7 µM	> 100 µM	> 24.7 µM	> 100 µM	13.5 µM	> 100 µM	–	–	–	–	–	–	–	–	–	–
COC(=O)CCCCCN=Cc1c(O)c(O)c(C(C)C)c2cc(C)c(-c3c(C)cc4c(C(C)C)c(O)c(O)c(C=NCCCCCC(=O)OC)c4c3O)c(O)c12	–	4.82	6.52 µM	> 32.5 µM	12.6 µM	5.34 µM	28.7 µM	9.61 µM	> 32.5 µM	> 32.5 µM	–	1.28	0.968 µM	1.29	4.46	0.911	2.2 µM	1.09 µM	1.15	1.42
C/C(=N\NC(N)=S)c1nc2ccc(Cl)cc2[nH]1	18.1 µM	–	7.9 µM	14 µM	22.4 µM	6.33 µM	44.6 µM	15.9 µM	20.7 µM	7.83 µM	5.71	–	1.24 µM	2.32	2.7	1.33	2.81 µM	1.29 µM	2.6	0.848
COc1cc(Br)c(C=Nc2cccc3ccc(OS(=O)(=O)c4cccc([N+](=O)[O-])c4)cc23)cc1OC	> 100 µM	> 100	> 100 µM	> 100 µM	> 100 µM	60.4 µM	> 100 µM	> 100 µM	–	> 100 µM	–	–	–	–	–	–	–	–	–	–
BrC1(Br)C2/C=C\CCCCC21 (configuration not stated)	> 100 µM	> 100	> 100 µM	> 100 µM	–	> 100 µM	> 100 µM	> 100 µM	> 100 µM	> 100 µM	–	–	–	–	–	–	–	–	–	–
